Measurements published in US20220073554A1, “LINCOSAMIDE ANTIBIOTICS AND USES THEREOF” (President and Fellows of Harvard College, priority 2017, published 2022).
Converted amounts (≈) assume the structure as drawn. Where two headings read alike, the source gives them in different places.

Assays:
Format in all cases: cell-based
[1] = tested on: E. faecalis MMX 847 Macrolide-Resistant; assay: MIC against E. faecalis MMX 847 Macrolide-Resistant; details: Enterococcus faecalis
[2] = tested on: P. aeruginosa ATCC 27853; assay: MIC against P. aeruginosa ATCC 27853; details: Pseudomonas aeruginosa, ATCC27853
[3] = tested on: C. difficile BAA 1805; assay: MIC against C. difficile BAA 1805; details: Clostridioides difficile, BAA1805
[4] = tested on: S. aureus Micromyx USA 300; assay: MIC against S. aureus Micromyx USA 300; details: Staphylococcus aureus, USA300
[5] = tested on: S. aureus MMX 3035 cErmA; assay: MIC against S. aureus MMX 3035 cErmA; details: Staphylococcus aureus, MMX3035CERMA
[6] = tested on: P. aeruginosa MMX Mex parent strain; assay: MIC against P. aeruginosa MMX Mex parent strain; details: Pseudomonas aeruginosa
[7] = tested on: E. coli ATCC 15922; assay: MIC against E. coli ATCC 15922; details: Escherichia coli, ATCC15922
[8] = tested on: E. faecalis ATCC 29212; assay: MIC against E. faecalis ATCC 29212; details: Enterococcus faecalis
[9] = tested on: S. pyogenes ATCC 19615; assay: MIC against S. pyogenes ATCC 19615; details: Streptococcus pyogenes, ATCC19615
[10] = tested on: E. coli MMX TolC parent strain; assay: MIC against E. coli MMX TolC parent strain; details: Escherichia coli
[11] = tested on: P. aeruginosa MMX 3476 Δmex; assay: MIC against P. aeruginosa MMX 3476 Δmex; details: Pseudomonas aeruginosa
[12] = tested on: H. influenzae ATCC 49247; assay: MIC against H. influenzae ATCC 49247; details: Haemophilus influenzae, ATCC49247
[13] = tested on: E. coli ATCC 25922; assay: MIC against E. coli ATCC 25922; details: Escherichia coli, ATCC25922
[14] = tested on: S. pyogenes MMX 946 Macrolide-Resistant; assay: MIC against S. pyogenes MMX 946 Macrolide-Resistant; details: Streptococcus pyogenes
[15] = tested on: S. pneumoniae ATCC 49619; assay: MIC against S. pneumoniae ATCC 49619; details: Streptococcus pneumoniae, ATCC49619; S. pneumoniae ATCC 49619; read-out: MIC
[16] = tested on: S. pneumoniae MMX 3028 cErmB; assay: MIC against S. pneumoniae MMX 3028 cErmB; details: Streptococcus pneumoniae, MMX3028CERMB
[17] = tested on: S. pneumoniae MMX 3031 cMefA; assay: MIC against S. pneumoniae MMX 3031 cMefA; details: Streptococcus pneumoniae, MMX3031CMEFA
[18] = tested on: S. aureus ATCC 29213; assay: MIC against S. aureus ATCC 29213; details: Staphylococcus aureus
[19] = tested on: S. aureus BAA 977 iErmA; assay: MIC against S. aureus BAA 977 iErmA; details: Staphylococcus aureus, BAA977
[20] = tested on: B. fragilis ATCC 25285; assay: MIC against B. fragilis ATCC 25285; details: Bacteroides fragilis, ATCC25285
[21] = tested on: E. coli MMX 0121 ΔTolC; assay: MIC against E. coli MMX 0121 ΔTolC; details: Escherichia coli
[22] = tested on: K. pneumoniae ATCC 10031; assay: MIC against K. pneumoniae ATCC 10031; details: Klebsiella pneumoniae, ATCC10031; K. pneumoniae ATCC 10031; read-out: MIC
[23] = C. difficile BAA 1805, read-out: MIC
[24] = S. aureus Micromyx USA 300, read-out: MIC
[25] = S. pyogenes ATCC 19615, read-out: MIC
[26] = H. influenzae ATCC 49247, read-out: MIC
[27] = ATCC29213, S. aureus ATCC 29213, read-out: MIC

SMILES | MIC [1] [µg/mL] | MIC [2] [µg/mL] | MIC [4, 24] [µg/mL] | MIC [5] [µg/mL] | MIC [6] [µg/mL] | MIC ([8]; ATCC29212, read-out: MIC) [µg/mL] | MIC [10] [µg/mL] | MIC [11] [µg/mL] | MIC [12, 26] [µg/mL] | MIC [13] [µg/mL] | MIC [14] [µg/mL] | MIC [15] [µg/mL] | MIC [16] [µg/mL] | MIC [18, 27] [µg/mL] | MIC [19] [µg/mL] | MIC [21] [µg/mL] | other results
CSC1O[C@H]([C@H](NC(=O)[C@H]2NC[C@@H]3C=C(c4ccc(C(F)(F)F)cc4)CCO[C@@H]23)[C@H](C)Cl)C(O)[C@@H](O)[C@H]1O (stereo partly drawn) [FSA-507053] | > 64 | > 64 | 0.5 (≈ 0.861 µM) | > 64 | > 64 | 2 (≈ 3.44 µM) | > 64 | > 64 |  |  |  |  |  |  |  |  | MIC [3, 23]: 8 µg/mL (≈ 13.8 µM); MIC [7]: > 64 µg/mL; MIC [9, 25]: ≤ 0.06 µg/mL
CSC1O[C@H]([C@H](NC(=O)[C@H]2NC[C@H]3CC=CCO[C@H]32)[C@H](C)Cl)C(O)[C@@H](O)[C@H]1O (stereo partly drawn) [FSA-507051] | > 32 | > 32 |  | > 32 | > 32 |  | > 32 | > 32 | 6 (≈ 13.7 µM) | > 32 | > 32 | 1 (≈ 2.29 µM) | > 32 |  |  |  | MIC [3]: > 32 µg/mL; MIC ([8]; ATCC29212): > 32 µg/mL; MIC [17]: 1 µg/mL (≈ 2.29 µM); MIC [9]: 0.5 µg/mL (≈ 1.14 µM)
CSC1O[C@H]([C@H](NC(=O)[C@H]2NC[C@@H]3CC(c4ccc(F)cc4)=CCO[C@H]32)[C@H](C)Cl)C(O)[C@@H](O)[C@H]1O (stereo partly drawn) [FSA-507057] | > 64 | > 64 | 1 (≈ 1.88 µM) | > 64 | > 64 | 1 (≈ 1.88 µM) | > 64 | > 64 |  |  | > 64 | ≤ 0.06 |  | 2 (≈ 3.77 µM) | 1 (≈ 1.88 µM) |  | MIC [7]: > 64 µg/mL; MIC [17]: ≤ 0.06 µg/mL
CSC1O[C@H]([C@H](NC(=O)[C@H]2NC[C@@H]3CC(c4ccccc4)=CCO[C@H]32)[C@H](C)Cl)C(O)[C@@H](O)[C@H]1O (stereo partly drawn) [FSA-507056] | > 32 | > 32 | 0.5 (≈ 0.975 µM) | > 32 | > 32 | 2 (≈ 3.9 µM) | > 32 | > 32 |  | > 32 | > 32 |  | > 32 | 1 (≈ 1.95 µM) | 1 (≈ 1.95 µM) | > 32 | MIC [20]: > 32 µg/mL; MIC [12]: > 32 µg/mL
CSC1O[C@H]([C@H](NC(=O)[C@H]2NC[C@@H]3CC(c4ccc(C(F)(F)F)cc4)=CCO[C@H]32)[C@H](C)Cl)C(O)[C@@H](O)[C@H]1O (stereo partly drawn) [FSA-507060] |  | > 64 | 0.12 (≈ 0.207 µM) |  | > 64 | 8 (≈ 13.8 µM) |  | > 64 |  |  |  | 0.5 (≈ 0.861 µM) |  | 2 (≈ 3.44 µM) | 1 (≈ 1.72 µM) |  | 
CSC1O[C@H]([C@H](NC(=O)[C@H]2NC[C@@H]3C=C(c4ccccc4)CCO[C@@H]23)[C@H](C)Cl)C(O)[C@@H](O)[C@H]1O (stereo partly drawn) [FSA-507031] | > 32 | > 32 |  | > 32 | > 32 |  | > 32 | > 32 | 8 (≈ 15.6 µM) | > 32 | > 32 |  | > 32 |  | > 32 | > 32 | MIC [20]: > 32 µg/mL; MIC [3]: > 32 µg/mL; MIC [4]: > 32 µg/mL; MIC ([18]; ATCC29213): > 32 µg/mL; MIC ([8]; ATCC29212): > 32 µg/mL
CSC1O[C@H]([C@H](NC(=O)[C@H]2NC[C@@H]3C[C@H]4C[C@H]4CO[C@H]32)[C@H](C)Cl)C(O)[C@@H](O)[C@H]1O (stereo in doubt) [FSA-507007] |  |  |  |  |  |  |  |  | 2 (≈ 4.43 µM) |  |  |  |  |  | 0.5 (≈ 1.11 µM) | 8 (≈ 17.7 µM) | MIC ([1]; E. faecalis MMX 847 Macrolide-Resistant (MacRes), read-out: MIC): > 64 µg/mL; MIC ([2]; P. aeruginosa ATCC 27853, read-out: MIC): > 64 µg/mL; MIC [3, 23]: 4 µg/mL (≈ 8.87 µM); MIC ([5]; S. aureus MMX 3035 cErmA, read-out: MIC): > 64 µg/mL; MIC ([6]; P. aeruginosa MMX Mex parent strain, read-out: MIC): > 64 µg/mL; MIC [22]: > 64 µg/mL; MIC ([13]; E. coli ATCC 25922, read-out: MIC): > 64 µg/mL; MIC [9, 25]: ≤ 0.06 µg/mL; MIC ([10]; E. coli MMX TolC parent strain, read-out: MIC): > 64 µg/mL
